“Also recorded” adds a separate entry of the source.
Columns and labels:
[1] = system: A2En, 3EC1, and SiHa Cells; assay: Cytokine and chemokine induction in cervical cell lines (ELISA); settings: 6 h; varying concentrations up to 66 μg/ml
Description: Cytokine and chemokine production was assessed at 12 h by ELISA (R&D systems). Cells were also treated with 0.1% nonoxynol-9 as a positive control for cytotoxicity and with 0.1 μg/ml FSL1, a synthetic diacylated lipoprotein derived from Mycoplasma salivarium (InvivoGen, San Diego, Calif.), as a positive control for chemokine production.
Nonoxynol-9 (non-9), a spermicide, was used as a positive control. […] Cell culture supernatants were then assessed for the presence of the inflammatory cytokines and chemokines Mip-3α (FIG. 5B), IL-8 (FIG. 16C), IL-1β, and TNF-α.

HIV-1 (IIIB) = assay: SEVI mediated enhancement of HIV infection, CEM 5.25 cells (luciferase); assay type: cell-based; settings: 25 μg/mL SEVI fibrils; compound 5.5, 11 and 16.5 μg/mL; 72 hrs
Description: CEM 5.25 cells were exposed to infectious HIV-1 (IIIB) for 2 hours in the absence or presence (25 μg/mL) of SEVI fibrils; BTA-EG4 (FIG. 5A) and EG6 (FIG. 5B) was added at concentrations of 5.5, 11 and 16.5 μg/mL.

HIV-1 IIIB [2] = assay: Virus binding assay, HIV-1 IIIB virions to Jurkat cells (p24); assay type: cell-based; settings: for SEVI-enhanced binding of HIV-1 IIIB virions to Jurkat cells (p24 ELISA): SEVI-pretreated virions, 90 min, increasing concentrations
Description: After 90 minutes, cells were washed to remove any unbound virus and bound virions were detected using a p24 ELISA. […]
After 90 min, cells were washed to remove any unbound virus, and bound virions were detected using an HIV-1 p24 antigen capture assay (Advanced Bioscience Laboratory). […]
After 90 min, cells were washed to remove any unbound virus, and bound virions were detected using an HIV-1 p24 antigen capture assay (Advanced Bioscience Laboratory, Rockville, Md.).

[3] = system: cervical epithelial cell lines SiHa, A2En (endocervical), and 3EC1 (ectocervical); assay: Viability of cervical cell lines (resazurin, AlamarBlue); assay type: cell-based, human; settings: up to 10 times the IC50 (66 μg/ml)
Text: Loss of this protective layer leads to an increased ability for HIV-1 to cross the mucosal barrier, and inflammatory effects drive recruitment of HIV-1 target cells, further decreasing the natural barriers against successful transmission of HIV. […] To do this, the following cell lines were used: 1) SiHa cells, a cervical carcinoma cell line; 2) A2En cells, a primary cell-derived line from the endocervical […]; and 3) 3EC1 cells, a primary cell-derived line from the ectocervical […]. […] Viability was assessed at 24 h by using the resazurin cytotoxicity assay. Resazurin cytotoxicity data were confirmed by trypan blue counts of viable cells.

HIV-1 IIIB [4] = assay: Semen mediated enhancement of HIV infection, CEM 5.25 cells (luciferase); assay type: cell-based; settings: 50% semen, diluted 15 fold; 48 hours
Description: After 10 minutes these stocks were diluted 15 fold into CEM 5.25 cells.
After 10 minutes, the stocks were diluted 15 fold and incubated with CEM 5.25 cells. […] After 90 minutes cells were washed to remove any unbound virus and bound virions were detected using a p24 ELISA.

SEVI fibrils = target: T1, SEVI fibrils (Homo sapiens, UniProt P15309); assay: Fluorescence polarization, displacement of FITC-heparin from SEVI fibrils; assay type: binding; set-up: PAP248-286 and biotinylated PAP248-286, in which a biotin was added to the amino terminus of the peptide, was synthesized; made in house; host or cells: chemical peptide synthesis; fibrils formed by agitation in PBS at 37 °C for 72 h; settings: 16 μg/ml FITC-heparin; 1 h room temperature
T1 sequence (P15309 248-286 limits assumed): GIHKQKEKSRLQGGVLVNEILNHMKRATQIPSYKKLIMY
Description: Samples were incubated 1 h at room temperature and read on a PerkinElmer Life Sciences Envision 2012 multilabel reader (PerkinElmer, Waltham, Mass.) at an excitation λ=480 nm and emission λ=535 nm. The horizontal and vertical polarized fluorescence intensities were recorded, and the calculated polarization was determined in millipolarization units.
In order to find other small molecules that bind SEVI, a fluorescence polarizing screen was developed. Polarized light passed over a small unbound molecule with a fluorescent moiety will produce rapid rotation and will result in fluorescence that is de-polarized. Polarized light passed over SEVI bound to a small molecule with a fluorescent moiety will result in fluorescence that is polarized. […] Samples were incubated at excitation of λ=480 and emission λ=535 (FIG. 8, left graph). […] Samples were incubated for 1 hour at room temperature and polarized fluorescence was measured.
ThT is able to intercalate into the generic β-sheet structure of amyloid fibrils. […] This molecule binds to Aβ fibrils and interferes with the ability of Aβ-binding proteins to interact with the fibrils.

HIV-1ADA [5] = settings: 22.5 μg/ml BTA-EG6
Description: After 90 min, cells were washed to remove any unbound virus, and bound virions were detected using a p24 ELISA. […] At 24 h, supernatants were collected and analyzed by ELISA for the presence of IL-8.
Surface-bound virions were then measured by p24 ELISA after washing off unbound virus. […] Additionally, this experiment was performed using A2En cells, a primary cell-derived endocervical cell line.

HIV-1ADA [6] = system: HIV-1ADA
Description: Treated virions were then added to 5×10^4 CEM-M7 cells/well in 96-well flat-bottomed tissue culture plates. After 2 h, the medium […] were replaced. Infection was assayed after 48 h by quantifying luciferase expression using the Promega Dual-Luciferase assay and a Beckman Coulter DTX880 plate reader.

HIV-1BaL = system: HIV-1BaL
Description: Cells were washed at 3 h, and infection was analyzed at day 4 using the HIV-1 p24 antigen capture assay (Advanced Bioscience Laboratory).

HIV-1IIIB = settings: pooled human semen 1:1, then 1:15; 5.5, 11, 22.5 μg/ml
Description: (§1) After 15 min, the semen and virus mixture was diluted 1:15 into 5×10^4 CEM-M7 cells/well in a 96-well plate. Cells were washed after 1 h, and infection was assayed at 48 h as above.
(§2) As human semen has been reported to be toxic to cultured cells, a protocol that minimized this toxicity was used. Pooled human semen was added to HIV-1IIIB virus in a 1:1 dilution. After 15 min, this solution was added to cells at a 1:15 dilution for a final concentration of 3.3%.

HIV-1ADA [7] = settings: individual semen sample, 50%; R5 virus
Description: as §1, §2

A2En cells = settings: 15 μg/ml SEVI; 5.5, 11, 22.5 μg/ml; 24 h
Description: Supernatant was collected at 6 and 24 h, and the production of the chemokines IL-8 and Mip-3α was measured by ELISA (R&D Systems). […] After 6 h, supernatants were collected, and the production of the chemokines IL-8 and Mip-3α was measured by ELISA (R&D systems, Minneapolis, Minn.).
HIV stimulates the release of MIP-3 and IL-8 from vaginal and cervical epithelial cells.

Jurkat cells = assay: Flow cytometry, binding of SEVI-biotin fibrils to Jurkat cell surface (SA-FITC); assay type: cell-based, human; settings: for MFI (mean fluorescent intensity) / SA-FITC+ (cells with bound fibrils): SEVI-biotin 1 h
Description: Cells were incubated for 1 h at 37° C., washed, and stained for 1 h with a covalent conjugate of streptavidin and fluorescein isothiocyanate (SA-FITC). Cells were washed and run on an Accuri C6 Flow Cytometer (Accuri Cytometers, Ann Arbor, Mich.). Data were analyzed using FlowJo (TreeStar Inc, Ashland, Oreg.).
After that time, fibrillar structures were examined by ThT fluorescence. ThT changes in fluorescence intensity when intercalated into the β-sheet structure common to amyloid fibrils; therefore, ThT fluorescence serves as a surrogate measure for fibrillar structure of SEVI and for the stability of SEVI fibrils. […] Binding of the fibrils to the cell surface was detected using SA-FITC. […] Surface-bound fibrils were detected with SA-FITC and measured by flow cytometry. Results are shown as percentage of cells with bound fibrils (SA-FITC+) as well as mean fluorescent intensity (MFI).

[8] = target: aggregated Alzheimer disease-related Aβ(1-42) peptides (Homo sapiens, UniProt P05067); settings: read-out: Kd for binding to aggregated Aβ(1-42) peptides; same fluorescence binding assay
Description: These incubations were performed in duplicate runs and allowed to equilibrate overnight at room temperature. After equilibration, each solution was centrifuged at 16,000×g for 30 min. The supernatants were separated from the pelleted fibrils, and 220 μl of fresh PBS was added to resuspend the pellets. […] Error bars represent standard deviations from the mean. […] The data were processed using Origin 7.0 (MicroCal Software, Inc., Northampton, Mass.).

[9] = heparin (100 μg/ml) positive control

aggregated Alzheimer disease-related Aβ(1-42) peptides, sequence (P05067 672-713): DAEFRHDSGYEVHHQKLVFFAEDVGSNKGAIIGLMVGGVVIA

Cc1ccc2nc(-c3ccc(NCCOCCOCCOCCO)cc3)sc2c1 [BTA-EG4]
production of inflammatory cytokines and chemokines (Mip-3α, IL-8, IL-1β, TNF-α) [1]: do not induce cytokine production in cervical epithelial cells
SEVI mediated enhancement of HIV infection (luciferase activity) (HIV-1 (IIIB)): decreasing levels of luciferase activity; also recorded: inhibit SEVI mediated enhancement of HIV infection
SEVI-enhanced binding of HIV-1 IIIB virions to Jurkat cells (p24 ELISA) (HIV-1 IIIB [2]): decrease in HIV-1 binding to the cells; also recorded: decrease SEVI enhanced binding of HIV to target cells
cell viability [3]: did not affect the cell viability; also recorded: not toxic to cervical epithelial Cells
semen mediated enhancement of HIV infection (luciferase activity) (HIV-1 IIIB [4]): decrease in luciferase activity; also recorded: inhibit semen mediated enhancement of HIV Infection
binding to SEVI fibrils (displacement of FITC-heparin, polarized fluorescence) (SEVI fibrils): capable of binding SEVI; also recorded: detects binding

Cc1ccc2nc(-c3ccc(NCCOCCOCCOCCOCCOCCO)cc3)sc2c1 [BTA-EG6]
production of inflammatory cytokines and chemokines (Mip-3α, IL-8, IL-1β, TNF-α) [1]: did not lead to the release of any of these cytokines or chemokines; also recorded: do not induce cytokine production in cervical epithelial cells; also recorded: does not induce inflammatory chemokine production in cervical epithelial cells
SEVI-enhanced binding of virions to A2En cells (p24) (HIV-1ADA [5]): inhibited
SEVI mediated enhancement of HIV infection (luciferase activity) (HIV-1 (IIIB)): decreasing levels of luciferase activity; also recorded: inhibit SEVI mediated enhancement of HIV infection
SEVI-mediated enhancement of HIV-1 infection (luciferase) (HIV-1ADA [6]; 15 μg/ml SEVI, R5 strain): significant dose-dependent inhibition
infectivity of HIV-1ADA in the absence of SEVI (HIV-1ADA [6]; absence of SEVI): No effect on the infectivity of HIV-1ADA
SEVI-mediated enhancement of HIV-1 infection in PBMCs (p24) (HIV-1BaL; 15 μg/ml SEVI, day 4): able to inhibit SEVI-mediated enhancement of HIV-1 infection in PBMCs
infectivity of HIV-1BaL in PBMCs in the absence of SEVI (HIV-1BaL; absence of SEVI): no effect on the infectivity of HIV-1BaL
semen-mediated enhancement of HIV-1 infection (luciferase) (HIV-1IIIB): efficiently inhibited the semen mediated enhancement of HIV-1 infection; also recorded: inhibits semen-mediated enhancement of HIV-1 infectivity
semen-mediated enhancement of HIV-1 infection (luciferase) (HIV-1ADA [7]): this effect extended to infection with an R5 virus
binding of HIV virions to the cell surface in the absence of SEVI (HIV-1 IIIB [2]; Jurkat cells, no SEVI): no effect on the binding of HIV virions to the cell surface; also recorded: no effect on the binding of HIV-1 virions alone to cells
SEVI-enhanced binding of HIV-1 IIIB virions to Jurkat cells (p24 ELISA) (HIV-1 IIIB [2]): decrease in HIV-1 binding to the cells; also recorded: decrease SEVI enhanced binding of HIV to target cells; also recorded: efficiently inhibited SEVI-mediated enhancement of HIV-1IIIB attachment to Jurkat cells
SEVI-enhanced binding of HIV-1 IIIB virions to Jurkat cells (p24 ELISA) (HIV-1 IIIB [2]; listed as BTAEG6): efficiently abrogated
cell viability [3]: did not affect the cell viability; also recorded: did not have any effects on cell viability; also recorded: not toxic to cervical cells
cell viability ([3]; listed as EG6): not toxic to cervical epithelial Cells
IL-8 release from cells treated with virus and SEVI (A2En cells): able to inhibit this release
semen mediated enhancement of HIV infection (luciferase activity) (HIV-1 IIIB [4]): decrease in luciferase activity; also recorded: inhibit semen mediated enhancement of HIV Infection
MFI (mean fluorescent intensity) (Jurkat cells; BTA-EG6 high (27 μg/ml)): 38.7
SA-FITC+ (cells with bound fibrils) (Jurkat cells; BTA-EG6 high (27 μg/ml)): 21.2%
MFI (mean fluorescent intensity) (Jurkat cells; BTA-EG6 low (5.5 μg/ml)): 95.3
SA-FITC+ (cells with bound fibrils) (Jurkat cells; BTA-EG6 low (5.5 μg/ml)): 36.6%
interaction of SEVI fibrils with the cell surface (Jurkat cells; Jurkat T cells, increasing concentrations): inhibited the ability of SEVI fibrils to interact with and bind the cell surface; also recorded: inhibits the interaction of SEVI fibrils with the cell surface
binding to SEVI fibrils (displacement of FITC-heparin, polarized fluorescence) (SEVI fibrils): capable of binding SEVI; also recorded: able to displace fluorescent heparin from the SEVI fibrils in a dose-dependent fashion; also recorded: detects binding; also recorded: binds SEVI fibrils
Kd [8]: 111 ± 32 nM

heparin [reference compound]
MFI (mean fluorescent intensity) (Jurkat cells; [9]): 376
SA-FITC+ (cells with bound fibrils) (Jurkat cells; [9]): 31.7%
binding to SEVI fibrils (displacement of FITC-heparin, polarized fluorescence) (SEVI fibrils): polarization decreased

From patent US20130157924A1, “REDUCING TRANSMISSION OF SEXUALLY TRANSMITTED INFECTIONS” (THE REGENTS OF THE UNIVERSITY OF CALIFORNIA, priority 2010, published 2013)
